The values that follow come from publication PMC5564600 (Oncotarget, 2017).

Test in all cases: biochemical
Holding throughout (assay type): binding

Experiment [1] concerns the target T1, panel of 442 kinases (Homo sapiens, UniProt Q02779).
T1 construct: purchased Ambit Biosciences (scanMAXX KINOMEscan)
Conditions: kinase MLK2; for remaining activity at 1 µM: read-out: % of control at 1 µM.

Experiment [2] concerns the target T2, panel of 442 kinases (Homo sapiens, UniProt Q9H2X6).
T2 construct: purchased Ambit Biosciences (scanMAXX KINOMEscan)
Conditions: kinase HIPK2; for remaining activity at 1 µM: read-out: % of control at 1 µM.

Experiment [3] concerns the target T3, panel of 442 kinases (Homo sapiens, UniProt Q56UN5).
T3 construct: purchased Ambit Biosciences (scanMAXX KINOMEscan)
T3 sequence (Q56UN5 1-1328): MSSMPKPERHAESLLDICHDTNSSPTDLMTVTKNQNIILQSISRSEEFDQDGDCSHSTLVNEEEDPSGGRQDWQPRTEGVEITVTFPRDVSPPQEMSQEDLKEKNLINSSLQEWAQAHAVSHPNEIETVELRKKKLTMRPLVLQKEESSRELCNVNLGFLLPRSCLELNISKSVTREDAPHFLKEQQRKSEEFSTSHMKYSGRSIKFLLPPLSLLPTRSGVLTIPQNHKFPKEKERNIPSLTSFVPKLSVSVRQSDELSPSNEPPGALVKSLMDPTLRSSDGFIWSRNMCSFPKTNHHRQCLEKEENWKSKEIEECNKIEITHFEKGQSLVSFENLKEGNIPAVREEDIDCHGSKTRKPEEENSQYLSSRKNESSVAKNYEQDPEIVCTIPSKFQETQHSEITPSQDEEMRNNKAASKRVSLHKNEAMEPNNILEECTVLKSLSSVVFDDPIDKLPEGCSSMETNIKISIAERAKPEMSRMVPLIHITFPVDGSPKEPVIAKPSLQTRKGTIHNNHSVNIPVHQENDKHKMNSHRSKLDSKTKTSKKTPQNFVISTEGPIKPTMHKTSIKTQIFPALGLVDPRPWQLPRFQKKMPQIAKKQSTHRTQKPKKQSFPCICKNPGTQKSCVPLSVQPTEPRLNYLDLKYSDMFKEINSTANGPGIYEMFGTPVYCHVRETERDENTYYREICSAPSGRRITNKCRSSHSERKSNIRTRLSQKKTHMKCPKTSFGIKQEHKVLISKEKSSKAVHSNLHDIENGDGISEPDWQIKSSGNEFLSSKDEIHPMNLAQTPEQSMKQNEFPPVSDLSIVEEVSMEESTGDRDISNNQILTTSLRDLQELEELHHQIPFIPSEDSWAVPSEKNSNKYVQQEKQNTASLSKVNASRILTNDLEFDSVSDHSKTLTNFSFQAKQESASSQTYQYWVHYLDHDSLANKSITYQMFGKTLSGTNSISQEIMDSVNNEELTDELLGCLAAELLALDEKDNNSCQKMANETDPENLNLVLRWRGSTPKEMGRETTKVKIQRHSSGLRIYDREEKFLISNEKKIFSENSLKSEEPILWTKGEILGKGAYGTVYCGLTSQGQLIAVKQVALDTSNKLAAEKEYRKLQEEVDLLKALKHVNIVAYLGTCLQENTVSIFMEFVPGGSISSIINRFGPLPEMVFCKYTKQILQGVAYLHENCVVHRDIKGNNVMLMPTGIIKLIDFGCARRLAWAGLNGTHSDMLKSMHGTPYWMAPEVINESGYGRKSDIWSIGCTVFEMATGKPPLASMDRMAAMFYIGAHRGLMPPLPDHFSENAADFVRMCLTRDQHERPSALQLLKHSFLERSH
The conditions noted are these: kinase YSK4; for remaining activity at 1 µM: read-out: YSK4 (% of control at 1 µM).

In experiment [4] the target is T4, panel of 442 kinases (Homo sapiens, UniProt O00444).
T4 construct: purchased Ambit Biosciences (scanMAXX KINOMEscan)
T4 sequence (O00444 1-970): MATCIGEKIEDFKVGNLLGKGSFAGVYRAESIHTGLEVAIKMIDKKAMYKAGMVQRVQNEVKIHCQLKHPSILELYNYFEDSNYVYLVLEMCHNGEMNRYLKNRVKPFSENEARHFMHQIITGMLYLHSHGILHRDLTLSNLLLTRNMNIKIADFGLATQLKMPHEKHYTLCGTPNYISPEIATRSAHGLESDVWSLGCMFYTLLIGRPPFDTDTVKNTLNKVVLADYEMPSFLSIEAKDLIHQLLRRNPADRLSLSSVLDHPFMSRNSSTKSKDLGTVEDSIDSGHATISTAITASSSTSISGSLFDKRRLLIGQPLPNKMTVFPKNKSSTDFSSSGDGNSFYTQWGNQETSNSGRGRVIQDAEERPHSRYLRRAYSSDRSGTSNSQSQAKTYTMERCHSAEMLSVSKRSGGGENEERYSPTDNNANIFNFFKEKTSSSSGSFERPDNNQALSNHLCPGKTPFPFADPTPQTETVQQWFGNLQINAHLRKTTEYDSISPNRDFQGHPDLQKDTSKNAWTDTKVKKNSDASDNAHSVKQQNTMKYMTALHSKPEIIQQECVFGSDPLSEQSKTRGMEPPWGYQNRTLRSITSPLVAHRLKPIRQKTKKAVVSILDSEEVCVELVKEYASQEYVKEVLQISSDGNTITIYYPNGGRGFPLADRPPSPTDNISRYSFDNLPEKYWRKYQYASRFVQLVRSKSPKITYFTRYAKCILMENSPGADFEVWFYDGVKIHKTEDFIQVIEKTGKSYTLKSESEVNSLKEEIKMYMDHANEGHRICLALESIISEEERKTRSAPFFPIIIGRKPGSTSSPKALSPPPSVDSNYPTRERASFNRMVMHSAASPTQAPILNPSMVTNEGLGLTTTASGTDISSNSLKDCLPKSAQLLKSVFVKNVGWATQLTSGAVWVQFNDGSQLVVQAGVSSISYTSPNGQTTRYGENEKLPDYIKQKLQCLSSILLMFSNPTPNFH
Conditions: kinase PLK4; for remaining activity at 1 µM: read-out: PLK4 (% of control at 1 µM).

Experiment [5] addresses T5, panel of 442 kinases (Homo sapiens, UniProt P22694).
T5 construct: purchased Ambit Biosciences (scanMAXX KINOMEscan)
Conditions: kinase PKAC-beta; for remaining activity at 1 µM: read-out: PKAC-beta (% of control at 1 µM).

Experiment [6] has as its target T6, panel of 442 kinases (Homo sapiens, UniProt P00533, G719C).
T6 construct: purchased Ambit Biosciences (scanMAXX KINOMEscan)
Conditions: EGFR(G719C); for remaining activity at 1 µM: read-out: % of control at 1 µM.

The mark [7] stands for this setting: 10 µM, read-out: % of control at 10 µM.

Each structure is given as a SMILES string.

T6 sequence (P00533 25-1210 G719C): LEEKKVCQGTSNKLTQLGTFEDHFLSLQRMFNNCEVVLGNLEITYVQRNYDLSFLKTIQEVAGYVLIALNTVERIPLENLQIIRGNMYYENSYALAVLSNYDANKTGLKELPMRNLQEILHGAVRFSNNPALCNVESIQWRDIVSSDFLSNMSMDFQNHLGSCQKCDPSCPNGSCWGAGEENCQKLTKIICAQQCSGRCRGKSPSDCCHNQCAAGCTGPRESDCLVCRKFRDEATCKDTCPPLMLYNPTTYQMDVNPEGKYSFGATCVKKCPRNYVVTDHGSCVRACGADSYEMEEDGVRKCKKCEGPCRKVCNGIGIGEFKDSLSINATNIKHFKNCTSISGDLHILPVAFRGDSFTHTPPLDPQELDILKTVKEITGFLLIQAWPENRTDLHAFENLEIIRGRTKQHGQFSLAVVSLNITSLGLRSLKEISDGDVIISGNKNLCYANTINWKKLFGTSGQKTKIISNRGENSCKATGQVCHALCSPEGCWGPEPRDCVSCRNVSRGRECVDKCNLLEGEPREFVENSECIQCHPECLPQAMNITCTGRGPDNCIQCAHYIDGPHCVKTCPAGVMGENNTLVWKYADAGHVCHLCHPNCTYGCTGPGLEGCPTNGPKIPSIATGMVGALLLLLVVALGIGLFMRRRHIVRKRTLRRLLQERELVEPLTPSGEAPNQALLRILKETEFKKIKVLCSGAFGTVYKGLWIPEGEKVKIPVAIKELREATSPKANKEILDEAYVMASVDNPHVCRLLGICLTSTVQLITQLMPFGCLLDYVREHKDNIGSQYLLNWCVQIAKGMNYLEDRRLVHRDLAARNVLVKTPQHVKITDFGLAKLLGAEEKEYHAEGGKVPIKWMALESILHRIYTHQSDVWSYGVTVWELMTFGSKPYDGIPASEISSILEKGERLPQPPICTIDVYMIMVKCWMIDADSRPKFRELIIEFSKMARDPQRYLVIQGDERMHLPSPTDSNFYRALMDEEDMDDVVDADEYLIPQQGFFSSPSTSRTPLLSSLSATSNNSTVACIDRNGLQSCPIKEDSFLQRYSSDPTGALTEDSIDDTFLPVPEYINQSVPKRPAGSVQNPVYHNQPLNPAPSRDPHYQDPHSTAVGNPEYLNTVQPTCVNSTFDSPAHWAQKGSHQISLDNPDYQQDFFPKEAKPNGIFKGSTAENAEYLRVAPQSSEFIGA
T2 sequence (Q9H2X6 whole entry): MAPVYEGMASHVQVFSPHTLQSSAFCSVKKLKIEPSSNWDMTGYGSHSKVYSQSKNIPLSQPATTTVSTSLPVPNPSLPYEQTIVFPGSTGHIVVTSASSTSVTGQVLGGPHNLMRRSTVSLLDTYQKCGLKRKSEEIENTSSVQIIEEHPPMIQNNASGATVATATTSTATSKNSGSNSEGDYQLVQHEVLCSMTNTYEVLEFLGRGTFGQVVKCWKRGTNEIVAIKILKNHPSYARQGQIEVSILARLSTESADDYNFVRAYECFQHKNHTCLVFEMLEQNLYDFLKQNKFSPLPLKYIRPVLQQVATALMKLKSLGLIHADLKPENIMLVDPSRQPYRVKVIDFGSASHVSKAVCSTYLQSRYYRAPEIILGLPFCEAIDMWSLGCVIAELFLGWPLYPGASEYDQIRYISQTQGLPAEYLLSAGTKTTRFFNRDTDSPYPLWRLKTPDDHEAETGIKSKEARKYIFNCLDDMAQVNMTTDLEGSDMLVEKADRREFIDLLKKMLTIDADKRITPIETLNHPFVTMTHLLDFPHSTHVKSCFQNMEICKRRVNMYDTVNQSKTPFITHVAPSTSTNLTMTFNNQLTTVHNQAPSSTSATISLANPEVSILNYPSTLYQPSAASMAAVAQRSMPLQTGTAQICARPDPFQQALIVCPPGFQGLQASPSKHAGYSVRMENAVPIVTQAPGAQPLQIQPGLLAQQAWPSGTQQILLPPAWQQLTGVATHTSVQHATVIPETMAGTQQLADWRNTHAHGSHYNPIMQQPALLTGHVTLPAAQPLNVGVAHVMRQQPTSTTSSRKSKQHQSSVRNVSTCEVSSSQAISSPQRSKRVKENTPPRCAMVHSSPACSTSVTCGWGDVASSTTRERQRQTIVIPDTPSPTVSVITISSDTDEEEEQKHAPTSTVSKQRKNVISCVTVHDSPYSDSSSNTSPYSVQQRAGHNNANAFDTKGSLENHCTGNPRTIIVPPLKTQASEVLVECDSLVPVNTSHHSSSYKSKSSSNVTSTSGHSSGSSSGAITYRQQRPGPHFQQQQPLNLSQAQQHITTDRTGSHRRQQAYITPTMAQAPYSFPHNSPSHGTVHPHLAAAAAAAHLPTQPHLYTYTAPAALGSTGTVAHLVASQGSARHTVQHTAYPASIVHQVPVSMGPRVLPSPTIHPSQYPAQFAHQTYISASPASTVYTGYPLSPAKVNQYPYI
T1 sequence (Q02779 whole entry): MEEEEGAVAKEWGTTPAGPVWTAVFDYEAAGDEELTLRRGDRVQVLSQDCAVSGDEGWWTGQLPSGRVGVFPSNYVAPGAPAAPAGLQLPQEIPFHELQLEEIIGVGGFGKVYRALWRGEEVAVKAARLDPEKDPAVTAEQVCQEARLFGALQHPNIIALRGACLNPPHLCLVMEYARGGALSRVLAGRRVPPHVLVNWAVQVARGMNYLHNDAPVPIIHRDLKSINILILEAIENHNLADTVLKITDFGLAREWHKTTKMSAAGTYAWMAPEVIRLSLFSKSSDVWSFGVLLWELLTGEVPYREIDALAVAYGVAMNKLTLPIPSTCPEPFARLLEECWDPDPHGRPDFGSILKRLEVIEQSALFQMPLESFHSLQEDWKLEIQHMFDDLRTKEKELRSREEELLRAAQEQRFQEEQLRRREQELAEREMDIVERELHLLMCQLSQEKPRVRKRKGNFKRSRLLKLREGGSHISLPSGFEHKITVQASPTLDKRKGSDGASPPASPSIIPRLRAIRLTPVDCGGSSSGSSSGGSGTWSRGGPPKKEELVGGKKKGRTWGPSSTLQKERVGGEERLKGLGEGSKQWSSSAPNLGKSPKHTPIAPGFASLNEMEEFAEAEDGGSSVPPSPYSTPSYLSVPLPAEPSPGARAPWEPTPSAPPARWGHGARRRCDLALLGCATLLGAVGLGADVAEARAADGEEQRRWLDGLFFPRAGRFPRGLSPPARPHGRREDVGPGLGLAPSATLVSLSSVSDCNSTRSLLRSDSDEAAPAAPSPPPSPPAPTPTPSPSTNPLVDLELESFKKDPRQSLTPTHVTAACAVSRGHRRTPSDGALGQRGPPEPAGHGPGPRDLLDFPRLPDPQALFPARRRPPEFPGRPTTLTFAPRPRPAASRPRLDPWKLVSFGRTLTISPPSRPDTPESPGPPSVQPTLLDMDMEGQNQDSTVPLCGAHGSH

`COc1ncc(-c2ccc3nccc(-c4ccnnc4)c3c2)cc1NS(=O)(=O)c1ccc(F)cc1F` [Omipalisib]: the remaining activity at 1 µM turned out to be 98% at panel of 442 kinases [1]; 91% at panel of 442 kinases [2]; 77% at panel of 442 kinases [3]; 61% on panel of 442 kinases [4]; 100% at panel of 442 kinases [5]; 100% on panel of 442 kinases [6].

For the compound `Cn1c(=O)n(-c2ccc(C(C)(C)C#N)cc2)c2c3cc(-c4cnc5ccccc5c4)ccc3ncc21` [Dactolisib, 2-methyl-2-[4-(3-methyl-2-oxo-8-quinolin-3-yl-2,3-dihydroimidazo[4,5-c]quinolin-1-yl)-phenyl] propionitrile], the remaining activity at 1 µM on panel of 442 kinases [1] was found to be 100%; at panel of 442 kinases [2], 64%; at panel of 442 kinases [3] it was 28%; at panel of 442 kinases [4], 94%; at panel of 442 kinases [5] it was 90%.

For the compound `Nc1cc(C(F)(F)F)c(-c2cc(N3CCOCC3)nc(N3CCOCC3)n2)cn1` [Buparlisib], the remaining activity at 1 µM came to 100% at panel of 442 kinases [1]; 100% at panel of 442 kinases [2]; 72% on panel of 442 kinases [3]; 93% at panel of 442 kinases [4]; 79% on panel of 442 kinases [5]; 84% at panel of 442 kinases [6]. Also, the remaining activity at 10 µM on panel of 442 kinases [1] (setting [7]) amounted to 100%; at panel of 442 kinases [2] (setting [7]), 100%; at panel of 442 kinases [3] (10 µM, read-out: YSK4 (% of control at 10 µM)) it was 78%; at panel of 442 kinases [4] (10 µM, read-out: PLK4 (% of control at 10 µM)) it was 87%; on panel of 442 kinases [5] (10 µM, read-out: PKAC-beta (% of control at 10 µM)), 100%; at panel of 442 kinases [6] (setting [7]) it was 83%.

As for `FC(F)c1nc2ccccc2n1-c1nc(N2CCOCC2)nc(N2CCOCC2)n1` [ZSTK474, 2-(difluoromethyl)-1-[4,6-di(4-morpholinyl)-1,3,5-triazin-2-yl]-1H-benzimidazole], the remaining activity at 1 µM came to 100% at panel of 442 kinases [1]; 86% at panel of 442 kinases [2]; 100% on panel of 442 kinases [3]; 84% on panel of 442 kinases [4]; 100% at panel of 442 kinases [5]; 97% on panel of 442 kinases [6].
